Literature values as cited in US20040059096A1, “Anti-ciguatoxin monoclonal antibody” (priority 2001, published 2004).

Conditions: species and route not given

C[C@@H]1C[C@@H]2O[C@@H]3[C@@H](C)[C@H](O)[C@@H]4OC5(C[C@H](O)CO5)[C@@H](C)[C@H](C)[C@H]4O[C@H]3C[C@H]2O[C@H]2C[C@H]3O[C@@H]4/C=C\C[C@H]5O[C@H]6C=C[C@H]7O[C@H]8[C@H](O)[C@H]9O[C@@H](/C=C/[C@H](O)CO)C=CC[C@@H]9O[C@@H]8C[C@@H]7O[C@@H]6C=C[C@@H]5O[C@@H]4C[C@@H](O)[C@]3(C)O[C@@H]2C1 (stereo partly shown) [CTX]
LD50: 0.35 µg/kg
